Among the data in BindingDB's records for doi:10.1021/jm970560h (Warner-Lambert, 1998) are IC50 values, retold here.

Molecules are shown by their SMILES.

The target of the test is Sterol O-acyltransferase 1 (ACAT) (Mus musculus) (UniProt Q61263). The experiment in a line: Inhibition of Acyl coenzyme A:cholesterol acyltransferase by cellular MAI2 assay.
Sterol O-acyltransferase 1 (ACAT) (Mus musculus), sequence (Q61263 whole entry, looked up): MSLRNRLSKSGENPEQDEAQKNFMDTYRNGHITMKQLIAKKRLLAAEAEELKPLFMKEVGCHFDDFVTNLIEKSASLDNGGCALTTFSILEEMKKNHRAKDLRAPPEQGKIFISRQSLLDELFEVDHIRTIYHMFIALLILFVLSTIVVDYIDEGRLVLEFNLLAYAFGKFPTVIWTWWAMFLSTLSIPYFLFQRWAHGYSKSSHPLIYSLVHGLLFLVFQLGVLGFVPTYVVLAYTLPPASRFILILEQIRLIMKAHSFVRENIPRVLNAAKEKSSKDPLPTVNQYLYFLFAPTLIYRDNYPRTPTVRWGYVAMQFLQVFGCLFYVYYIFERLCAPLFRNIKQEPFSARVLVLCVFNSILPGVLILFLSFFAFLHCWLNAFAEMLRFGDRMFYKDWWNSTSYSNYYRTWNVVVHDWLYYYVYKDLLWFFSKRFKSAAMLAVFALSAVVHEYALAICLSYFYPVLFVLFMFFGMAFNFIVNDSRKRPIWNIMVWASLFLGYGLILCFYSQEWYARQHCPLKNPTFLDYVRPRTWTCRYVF

In turn, `CCCCCCCCCCCCOC(=O)C(C(=O)Nc1c(C(C)C)cccc1C(C)C)c1ccccc1` (stereo unspecified) [N-(2,6-Diisopropyl-phenyl)-2-phenyl-malonamic acid dodecyl ester] returned a 50% inhibitory concentration (IC50) of 20 nM.
